Data on 1 molecule can be found in US20050014149A1, “Assay for inhibitors of translocases” (priority 2001, published 2005).

For the assay, the target named is SV40 large T antigen (Simian virus 40, UniProt P03070). Put plainly: Homogeneous helicase assay (streptavidin displacement from biotin-labelled oligonucleotide, biotin-4-fluorescein quenching). As to conditions: inhibitor added to the helicase assay; fluorescence ex 485 nm / em 535 nm; FIG. 4. In kind it is biochemical. An excerpt:
The helicase substrate takes the form of an oligonucleotide of length appropriate to the helicase under test that is biotinylated at one end, appropriate to the directionality of the helicase under test. In this example, a single-strand 60-mer with the sequence […] TGCATGATG was labelled with biotin at the 5′-terminus (obtained from Eurogentec, Belgium) so that it could be used as a substrate for the helicase function of the SV40 large T antigen which is a 3′-5′ helicase.
Equal volumes of streptavidin and biotin-labelled oligonucleotide dissolved in reaction buffer (see below) were mixed in such a way that there was at least a four-fold molar excess of oligonucleotide over streptavidin. This is to ensure the saturation of all biotin-binding sites on the streptavidin molecule (4 biotin-binding sites per molecule streptavidin). This mixture was incubated for at least 15 minutes before being used for the assay.
An aliquot of the oligonucleotide/streptavidin complex (oligo/SA) was then mixed with SV40 large T antigen and biotin-4-fluorescein in a suitable buffer, in this case 50 mM Tris-HCl pH 7.5, containing 3 mM MgCl2, 5 mM dithiothreitol and 100 μg/ml bovine serum albumin and pipetted into 384-well microplates.
The enzyme reaction was started by adding an appropriate amount of adenosine triphosphate and incubating the plate at 37° C. […]

Sequence of SV40 large T antigen (P03070 whole entry): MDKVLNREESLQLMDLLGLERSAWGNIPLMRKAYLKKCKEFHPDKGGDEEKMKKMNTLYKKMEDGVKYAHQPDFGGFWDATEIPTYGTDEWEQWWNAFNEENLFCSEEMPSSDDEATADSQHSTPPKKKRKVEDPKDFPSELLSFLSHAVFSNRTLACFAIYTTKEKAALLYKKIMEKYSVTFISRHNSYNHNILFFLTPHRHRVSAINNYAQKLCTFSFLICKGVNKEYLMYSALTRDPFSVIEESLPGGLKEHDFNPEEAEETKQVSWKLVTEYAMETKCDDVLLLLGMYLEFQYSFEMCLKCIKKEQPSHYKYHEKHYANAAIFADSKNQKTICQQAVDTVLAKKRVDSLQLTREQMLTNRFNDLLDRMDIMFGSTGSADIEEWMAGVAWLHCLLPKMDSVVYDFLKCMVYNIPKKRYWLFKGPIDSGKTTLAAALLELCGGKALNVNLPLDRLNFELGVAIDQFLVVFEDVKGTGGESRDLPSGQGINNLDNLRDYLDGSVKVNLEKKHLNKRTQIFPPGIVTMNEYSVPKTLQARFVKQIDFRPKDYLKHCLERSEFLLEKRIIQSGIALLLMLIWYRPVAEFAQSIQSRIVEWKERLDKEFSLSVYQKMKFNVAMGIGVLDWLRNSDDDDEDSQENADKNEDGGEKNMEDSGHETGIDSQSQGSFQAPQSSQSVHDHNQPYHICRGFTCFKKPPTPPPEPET

`Cn1cc(NC(=O)c2cc(NC(=O)c3cc(NC=O)cn3C)cn2C)cc1C(=O)NCCC(=N)N` [Distamycin A]: the “helicase activity (displacement of the streptavidin from the biotin-labelled substrate)” value is “dose-dependently decrease helicase activity”.
